According to publication PMC8347172, “Optimization and Validation of an In Vitro Standardized Glycogen Phosphorylase Activity Assay” (Molecules, 2021):

Assays:
[1] = molecular target: T1, rabbit muscle glycogen phosphorylase a (GPa) (Oryctolagus cuniculus, UniProt P00489); assay: colorimetric phosphate release assay (BIOMOL Green), glycogen synthesis direction, […] °C, no glucose; assay type: biochemical
T1 construct: gene PYGM
T1 sequence (P00489 2-843): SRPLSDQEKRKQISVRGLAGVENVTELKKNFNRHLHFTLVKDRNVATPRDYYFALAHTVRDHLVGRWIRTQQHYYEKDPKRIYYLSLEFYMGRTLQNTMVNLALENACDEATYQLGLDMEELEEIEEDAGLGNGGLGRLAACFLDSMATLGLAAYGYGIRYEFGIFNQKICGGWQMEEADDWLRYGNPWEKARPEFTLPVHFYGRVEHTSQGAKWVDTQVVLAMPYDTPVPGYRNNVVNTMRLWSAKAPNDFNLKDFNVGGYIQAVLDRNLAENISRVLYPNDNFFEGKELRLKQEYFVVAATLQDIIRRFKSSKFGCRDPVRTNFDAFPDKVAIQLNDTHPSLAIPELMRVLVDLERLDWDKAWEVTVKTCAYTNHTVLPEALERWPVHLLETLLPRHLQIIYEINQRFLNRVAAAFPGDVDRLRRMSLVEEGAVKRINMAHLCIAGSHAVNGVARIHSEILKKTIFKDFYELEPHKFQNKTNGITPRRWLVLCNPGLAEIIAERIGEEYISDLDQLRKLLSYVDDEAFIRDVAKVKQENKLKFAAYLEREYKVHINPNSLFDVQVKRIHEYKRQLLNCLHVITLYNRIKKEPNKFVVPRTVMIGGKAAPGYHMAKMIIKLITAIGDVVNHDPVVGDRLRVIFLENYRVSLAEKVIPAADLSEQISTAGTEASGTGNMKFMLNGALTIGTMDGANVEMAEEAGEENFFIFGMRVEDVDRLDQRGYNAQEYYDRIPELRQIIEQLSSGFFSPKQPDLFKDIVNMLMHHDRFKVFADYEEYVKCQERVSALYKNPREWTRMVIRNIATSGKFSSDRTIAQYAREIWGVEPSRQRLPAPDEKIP

[2] = molecular target: T1, rabbit muscle glycogen phosphorylase a (GPa); assay: colorimetric phosphate release assay (BIOMOL Green); percent inhibition at […], […] °C; assay type: biochemical
purified protein = substrate: O=P(O)(O)O[C@H]1O[C@H](CO)[C@@H](O)[C@H](O)[C@H]1O; assay: purified protein

CN(C)C(=O)[C@H](O)[C@H](Cc1ccccc1)NC(=O)c1cc2cc(Cl)ccc2[nH]1 [CP-91149, 5-chloro-N-[(1S,2R)-3-(dimethylamino)-2-hydroxy-3-oxo-1-(phenylmethyl)propyl]-1H-indole-2-carboxamide]
IC50 [1]: 580 ± 90 nM

O=c1oc2c(O)c(O)cc3c(=O)oc4c(O)c(O)cc1c4c23 [ellagic acid]
% inhibition at 100 μM [2]: 40.6 ± 4.5

B1: rabbit muscle glycogen phosphorylase a (GPa) (Oryctolagus cuniculus) (protein)
chain: T1 sequence (P00489 2-843)
Km (purified protein): 150 ± 30 µM
